We go through three molecules from US9815777B2, “Metformin salts to treat Type2 diabetes” (Jiva Pharma, Inc., priority 2013, dated 2017).

SMILES strings stand for the structures. Entries after “also recorded” stand apart in the source; their conditions may differ. Structures can show the parent of a compound that is named as a salt.

The subject of assay [1] is Female db/db B6BKS (D) Leprdb/J mice. Briefly: Fasting blood glucose in db/db mouse model of diabetes, daily oral gavage. In kind it is in vivo. To be noted: for Fasting Blood Glucose (% changes from vehicle control): 6 h fast; for Blood glucose lowering compared with the equivalent dose of metformin (in words): difference not statistically significant. The text has this:
(§1) The anti-diabetic activity of Met.TZ was examined in a standard mouse model of diabetes, in comparison to the front-line anti-diabetes drug metformin hydrochloride. Female db/db B6BKS (D) Leprdb/J mice of approximately 6.5 to 9.5 weeks old were used for this study. This is a standard genetic model of obesity related insulin resistance and diabetes, and has served as model animal for the development and analysis of many metabolically active drugs.
(§2) Two treatment groups of six female mice were administered Met.TZ (MetX), at dose levels of 44.7 mg/kg/dose or 149 mg/kg/dose. Two treatment groups of six female mice were administered the test sample TZ (X), at dose levels of 21.2 mg/kg/dose or 70.8 mg/kg/dose Two treatment groups of six female mice were administered the positive control article, metformin hydrochloride, at dose levels of 30 mg/kg/dose or 100 mg/kg/dose. One additional group of six mice served as the control and received the test article vehicle, water. All drugs and vehicle solutions were administered daily during the study via oral gavage at a dose volume of 5 mL/kg. Body weights were measured three times per week, at the time of glucose measurements.
(§3) Blood samples for glucose analysis were collected three times per week beginning on Day 1 through Day 26. Animals were fasted for 6 hours prior to glucose testing. On Days 1 through 12, the test article, positive control, and vehicle were administered after completion of the glucose testing. On Days 15 through 24 the dosing occurred approximately 90 minutes prior to glucose testing. On Day 26, a glucose tolerance test (GTT) was performed. The animals were administered a glucose solution at a dose level of 2 g/kg and a dose volume of 5 mL/kg. Blood collection for glucose measurements were collected predose, and at 0.5, 1, 1.5, 2, and 3 hours following administration of the glucose solution.

Assay [2] has the same test system. The assay is described as follows: Oral glucose tolerance test (GTT) on day 26 in db/db mice. In kind it is in vivo, mouse.
Text: as §1, §2, §3

Consider `CN(C)C(=N)NC(=N)N.O=C1CSC(=O)N1` [Met.TZ, Metformin thiazolidine-2,4-dione-3-ide], for which the “Glucose lowering activity (in words)” value in assay [1] (149 mg/kg (equivalent to metformin 100 mg/kg), from day 17 until termination of the study) is given as “striking glucose lowering activity”. Further, the “Fasting Blood Glucose (% changes from vehicle control)” value is listed as −13% in assay [1] (day 15 of treatment, 149 mg/kg/day oral gavage); −51% in assay [1] (day 17 of treatment, 149 mg/kg/day oral gavage); −33% in assay [1] (day 19 of treatment, 149 mg/kg/day oral gavage); −52% in assay [1] (day 22 of treatment, 149 mg/kg/day oral gavage). Besides, the “Blood glucose lowering compared with the equivalent dose of metformin (in words)” value in assay [1] (db/db mice) is listed as “more effective at lowering blood glucose than the equivalent dose of metformin; also recorded: lower glucose more than the equivalent dose of metformin hydrochloride alone”; in assay [1] (db/db mice, listed as 2,4-thiazolidinedione with metformin as its salt (1:1)), “enhanced the glucose lowering effect of metformin”. Also, the “GTT glucose curve versus control animals (Veh), significance” value in assay [2] (P<0.05 by ANOVA, means of 6 animals) is listed as “significantly different than that from control animals”. For the same molecule, the “Glucose levels post glucose administration compared with the equivalent dose of metformin (in words)” value in assay [2] (every time point, 149 mg/kg/day vs metformin 100 mg/kg/day, difference not statistically significant) is given as “lower glucose levels than animals treated with the equivalent dose of metformin”. The “Glucose tolerance (in words)” value in assay [2] (glucose 2 g/kg, 149 mg/kg/day) is on record as “striking improvement in glucose tolerance”.
With `CN(C)C(=N)N=C(N)N` [Metformin, metformin hydrochloride], the “Fasting Blood Glucose (% changes from vehicle control)” value in assay [1] (day 15 of treatment, 100 mg/kg/day oral gavage) is given as −9%; in assay [1] (day 17 of treatment, 100 mg/kg/day oral gavage) it was −34%; in assay [1] (day 19 of treatment, 100 mg/kg/day oral gavage) it was −7%; in assay [1] (day 22 of treatment, 100 mg/kg/day oral gavage), −43%.
`O=C1CSC(=O)N1` [TZ, 2,4-thiazolidinedione]: the “Fasting Blood Glucose (% changes from vehicle control)” value in assay [1] (day 15 of treatment, 70.8 mg/kg/day oral gavage) was “+34%”; in assay [1] (day 17 of treatment, 70.8 mg/kg/day oral gavage), −22%; in assay [1] (day 19 of treatment, 70.8 mg/kg/day oral gavage) it was “+9%”; in assay [1] (day 22 of treatment, 70.8 mg/kg/day oral gavage), −19%. In addition, in assay [1] (db/db mice, same model), the “Hypoglycemic activity without any metformin (in words)” value is recorded as “little effect on glucose lowering”.
